Results on 37 molecules are retold here after patent publication US9783536B2, “Nitrogen-containing heterocyclic compound or salt thereof” (FUJIFILM Corporation, priority 2013, dated 2017).

Structures can show the parent of a compound that is named as a salt. Where two headings read alike, the source gives them in different places.

Common to all, as to assay type: biochemical
For test [1], the target named is T1, human PI3Kα protein (Homo sapiens, UniProt P42336).
T1 construct: purchased Carna Biosciences, Inc; host or cells: baculovirus expression system
Nature of the test: PI3Kα enzyme assay (ADP-Glo). The conditions noted are these: read-out: PI3Kα enzyme inhibitory activity. An outline of the steps: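 Biotinylated human PI3Kα (baculovirus-expressed, 4.5 nmol/L) pre-incubated 15 min with compound in Tris-HCl pH 7.5, MgCl2, BSA; reaction 60 min at 25° C with 50 μmol/L PIP2 and 100 μmol/L ATP final. ADP quantified by ADP-Glo luminescence; IC50 calculated.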
For orientation: ADP-Glo turns the ADP formed in a reaction into a luminescent signal.

In test [2] the target is T2, GST fusion human ERK2 protein (Homo sapiens, UniProt P28482).
T2 construct: purchased Carna Biosciences, Inc; host or cells: E. coli expression system
Briefly: ERK2 enzyme assay (1). The note with it: read-out: ERK2 enzyme inhibitory activity (1). As to the method:
In an ERK2 enzyme assay, GLUTATHIONE S-TRANSFERASE (GST) FUSION HUMAN ERK2 PROTEIN (manufactured by Carna Biosciences, Inc.), which was produced by using an E. coli expression system, was used.
12 μL of a reaction liquid (2.5 nmol/L ERK2, 100 mmol/L Hepes, 10 mmol/L MgCl2, 1.5 mmol/L DTT, 0.003% Brij35, pH 7.5) including ERK2 protein and a test compound having a predetermined concentration was allowed to stand at room temperature for 15 minutes. Then, 3 μL of a mixture liquid of FL-PEPTIDE8 (5-FAM-IPTSPITTTYFFFKKK-COOH) (manufactured by Caliper Life Sciences), which is substrate peptide, and ATP (manufactured by Sigma-Aldrich Co. LLC.) was added thereto such that the final concentrations thereof became 4.25 μmol/L and 43.1 μmol/L, respectively, and an enzyme reaction was performed by allowing to stand at 25° C. for 120 minutes.
After the reaction, the enzyme reaction was stopped by adding 30 μL of a reaction stopper liquid (100 mmol/L HEPES, 11.2 mmol/L EDTA, 5.6% Brij35, pH 7.5) including a 0.5% COATING REAGENT 8 (trade name, manufactured by Perkin Elmer Inc.) thereto. Then, phosphorylated peptide and non-phosphorylated peptide were separated using LABCHIP EZ READER (trade name, manufactured by Caliper Life Sciences), and the porportion of the phosphorylated peptide was quantified.
The inhibitory activities of the compounds were evaluated using IC50 (50% inhibitory concentration). The IC50 was calculated using XLFIT (trade name, manufactured by ID Business Solutions).

Test [3] has as its target T2, GST fusion human ERK2 protein. Briefly: ERK2 enzyme assay (2). The note with it: read-out: ERK2 enzyme inhibitory activity (2). An outline of the steps:
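IC50 values come from mobility-shift measurement of phosphorylated versus unphosphorylated 5-FAM peptide substrate after EDTA quench. Beforehand, compound and 1.25 nmol/L E. coli-expressed GST–human ERK2 stood 15 min at room temperature (pH 7.5), then 1 mmol/L ATP and 4.25 μmol/L substrate (final) were added for 120 min at 25 °C.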

[4] abbreviates: 4.5 nmol/L PI3Kα, PIP2 50 μmol/L, ATP 100 μmol/L.
The mark [5] stands for this setting: 2.5 nmol/L ERK2, ATP 43.1 μmol/L.

T1 sequence (P42336 whole entry): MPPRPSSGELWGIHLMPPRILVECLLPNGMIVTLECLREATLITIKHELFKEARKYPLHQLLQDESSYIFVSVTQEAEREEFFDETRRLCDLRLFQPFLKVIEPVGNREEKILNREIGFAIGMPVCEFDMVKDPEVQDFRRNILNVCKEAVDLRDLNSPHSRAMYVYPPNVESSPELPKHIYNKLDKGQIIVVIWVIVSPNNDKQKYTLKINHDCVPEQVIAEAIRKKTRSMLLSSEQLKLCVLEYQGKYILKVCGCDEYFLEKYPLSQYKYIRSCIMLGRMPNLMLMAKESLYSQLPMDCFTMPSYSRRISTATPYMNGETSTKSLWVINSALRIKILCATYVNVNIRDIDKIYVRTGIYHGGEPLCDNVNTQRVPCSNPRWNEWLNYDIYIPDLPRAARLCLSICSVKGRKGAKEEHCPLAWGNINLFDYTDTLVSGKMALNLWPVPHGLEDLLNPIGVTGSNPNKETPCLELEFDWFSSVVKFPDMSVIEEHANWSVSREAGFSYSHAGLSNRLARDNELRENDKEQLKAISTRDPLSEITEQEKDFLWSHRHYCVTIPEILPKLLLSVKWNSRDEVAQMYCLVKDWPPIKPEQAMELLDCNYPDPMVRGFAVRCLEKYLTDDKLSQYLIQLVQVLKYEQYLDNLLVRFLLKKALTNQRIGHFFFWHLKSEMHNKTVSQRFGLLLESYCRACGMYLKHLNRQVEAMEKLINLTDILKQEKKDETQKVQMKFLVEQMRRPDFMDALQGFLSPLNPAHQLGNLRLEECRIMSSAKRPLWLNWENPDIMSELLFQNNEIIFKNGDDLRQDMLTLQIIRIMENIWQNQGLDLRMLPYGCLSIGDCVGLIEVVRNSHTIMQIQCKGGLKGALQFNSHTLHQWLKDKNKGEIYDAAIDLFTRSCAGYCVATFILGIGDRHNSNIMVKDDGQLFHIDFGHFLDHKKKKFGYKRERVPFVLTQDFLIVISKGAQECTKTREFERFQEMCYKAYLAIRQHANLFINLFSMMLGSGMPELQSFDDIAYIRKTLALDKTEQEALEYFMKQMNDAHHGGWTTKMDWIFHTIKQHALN
T1 sequence (P27986 whole entry partner): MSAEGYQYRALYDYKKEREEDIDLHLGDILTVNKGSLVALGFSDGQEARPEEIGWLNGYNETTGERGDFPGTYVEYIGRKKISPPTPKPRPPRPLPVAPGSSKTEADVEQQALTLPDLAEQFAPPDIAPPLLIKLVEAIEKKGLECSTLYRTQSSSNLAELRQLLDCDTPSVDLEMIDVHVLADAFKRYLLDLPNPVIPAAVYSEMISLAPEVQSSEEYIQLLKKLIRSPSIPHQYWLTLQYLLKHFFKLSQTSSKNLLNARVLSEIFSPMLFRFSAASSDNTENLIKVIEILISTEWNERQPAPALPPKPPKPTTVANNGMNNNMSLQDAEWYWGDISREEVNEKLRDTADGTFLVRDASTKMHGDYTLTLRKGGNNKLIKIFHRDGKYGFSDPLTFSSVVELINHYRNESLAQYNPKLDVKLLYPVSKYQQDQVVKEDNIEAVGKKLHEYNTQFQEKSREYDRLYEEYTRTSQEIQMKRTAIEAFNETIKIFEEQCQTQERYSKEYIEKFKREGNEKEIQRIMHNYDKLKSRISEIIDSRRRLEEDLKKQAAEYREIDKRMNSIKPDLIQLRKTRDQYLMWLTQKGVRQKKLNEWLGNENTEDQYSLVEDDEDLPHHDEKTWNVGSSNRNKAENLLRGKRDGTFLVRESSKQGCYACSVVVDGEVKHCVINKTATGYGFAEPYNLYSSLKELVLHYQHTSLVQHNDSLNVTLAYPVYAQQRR
T2 sequence (P28482 whole entry, the tested form may be a part): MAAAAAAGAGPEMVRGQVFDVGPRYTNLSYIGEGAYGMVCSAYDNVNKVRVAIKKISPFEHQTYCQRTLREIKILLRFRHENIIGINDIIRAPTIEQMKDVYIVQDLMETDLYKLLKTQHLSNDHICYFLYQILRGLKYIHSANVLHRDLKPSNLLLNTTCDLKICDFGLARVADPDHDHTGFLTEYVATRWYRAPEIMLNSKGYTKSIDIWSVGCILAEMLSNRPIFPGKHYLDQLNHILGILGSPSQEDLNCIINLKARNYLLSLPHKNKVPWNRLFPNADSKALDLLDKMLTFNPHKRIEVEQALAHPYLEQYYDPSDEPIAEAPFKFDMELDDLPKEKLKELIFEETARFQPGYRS

As for `c1nnc(Nc2ccc3ncc(-c4cnn(CCN5CCOCC5)c4)cc3n2)s1` [Example 0002], the IC50 in test [1] (setting [4]) and in test [2] (setting [5]) was less than 1000 nM in each case.

As for `c1nnc(Nc2ccc3ncc(N4CCOCC4)cc3n2)s1` [Example 0003, N-(7-morpholino-1,5-naphthyridin-2-yl)-1,3,4-thiadiazole-2-amine], the IC50 in test [1] (setting [4]) was 1000 to 10000 nM; in test [2] (setting [5]), less than 1000 nM.

For `CC(C)c1nnc(Nc2ccc3nccc(Nc4ccncc4)c3n2)s1` [Example 0004, N^2-(5-isopropyl-1,3,4-thiadiazol-2-yl)-N^8-(pyridin-4-yl)-1,5-naphthyridine-2,8-diamine], the IC50 in test [1] (setting [4]) and in test [2] (setting [5]) was less than 1000 nM each time.

As for `CC(C)c1nnc(Nc2ccc3nccc(Nc4cccnc4)c3n2)s1` [Example 0006], the IC50 in test [1] (setting [4]) and in test [2] (setting [5]) was less than 1000 nM in each case.

As for `CC(C)c1nnc(Nc2ccc3nccc(Nc4ccncn4)c3n2)s1` [Example 0007], the IC50 in test [1] (setting [4]) and in test [2] (setting [5]) was less than 1000 nM in each case.

`Cn1cc(-c2cnc3ccc(Nc4nnc(-c5ccccc5)s4)nc3c2)cn1` [Example 0028]: in test [2] (setting [5]), the IC50 was less than 1000 nM.

Take `Cc1nnc(Nc2ccc3ncc(-c4cnn(C)c4)cc3n2)o1` [Example 0031, 5-methyl-N-(7-(1-methyl-1H-pyrazol-4-yl)-1,5-naphthyridin-2-yl)-1,3,4-oxadiazole-2-amine hydrochloride]: the IC50 in test [2] (setting [5]) was in the range of 1000 to 10000 nM.

`Brc1cnc2ccc(Nc3nnc(C4CCCC4)s3)nc2c1` [Example 0039, N-(7-bromo-1,5-naphthyridin-2-yl)-5-cyclopentyl-1,3,4-thiadiazole-2-amine]: the IC50 in test [2] (setting [5]) is less than 1000 nM.

For `C#Cc1cnc2ccc(Nc3nnc(C4CCCC4)s3)nc2c1` [Example 0042, 5-cyclopentyl-N-(7-ethynyl-1,5-naphthyridin-2-yl)-1,3,4-thiadiazole-2-amine hydrochloride], in test [2] (setting [5]), the IC50 fell in the range of 10000 to 50000 nM.

In the case of `c1cncc(Oc2cnc3ccc(Nc4nnc(C5CCCC5)s4)nc3c2)c1` [Example 0044, 5-cyclopentyl-N-(7-((pyridin-3-yl)oxy)-1,5-naphthyridin-2-yl)-1,3,4-thiadiazole-2-amine hydrochloride], the IC50 in test [2] (setting [5]) fell in the range of 1000 to 10000 nM.

For `FC(F)(F)CN1CCN(c2cnc3ccc(Nc4nnc(C5CCCC5)s4)nc3c2)CC1` [Example 0049], the IC50 in test [2] (setting [5]) was in the range of 1000 to 10000 nM.

For `c1cn(-c2cc(Nc3cnc4ccc(Nc5nnc(C6CCCC6)s5)nc4c3)ccn2)nn1` [Example 0080], in test [2] (setting [5]), the IC50 is less than 1000 nM.

With `COc1ccc(Nc2ccc3ncc(-c4cnn(C)c4)cc3n2)nn1` [Example 0149], in test [2] (setting [5]), the IC50 was in the range of 1000 to 10000 nM.

Regarding `Cn1cc(-c2cnc3ccc(Nc4nnc(C(F)(F)F)s4)nc3c2)cn1` [Example 0164], in test [2] (setting [5]), the IC50 was less than 1000 nM.

Take `Cn1cc(-c2cnc3ccc(Nc4nnc(C(N)=O)s4)nc3c2)cn1` [Example 0168, 5-((7-(1-Methyl-1H-pyrazol-4-yl)-1,5-naphthyridin-2-yl)amino)-1,3,4-thiadiazole-2-carboxamide]: the IC50 in test [2] (setting [5]) was less than 1000 nM.

For the molecule `CSc1nnc(Nc2ccc3ncc(-c4cnn(C)c4)cc3n2)s1` [Example 0174, N-(7-(1-methyl-1H-pyrazol-4-yl)-1,5-naphthyridin-2-yl)-5-(methylthio)-1,3,4-thiadiazole-2-amine], the IC50 in test [2] (setting [5]) is less than 1000 nM.

Consider `Cn1cc(-c2cnc3ccc(Nc4nnc(C5CCC5)s4)nc3c2)cn1` [Example 0198, 5-Cyclobutyl-N-(7-(1-methyl-1H-pyrazol-4-yl)-1,5-naphthyridin-2-yl)-1,3,4-thiadiazole-2-amine], for which the IC50 in test [2] (setting [5]) is less than 1000 nM.

For the molecule `COc1ccc(-c2cnc3ccc(Nc4nnc(C5CCCC5)s4)nc3c2)cc1OC` [Example 0203], in test [2] (ERK2 enzyme assay (1)), the IC50 is less than 1000 nM.

Regarding `COc1cc(-c2cnc3ccc(Nc4nnc(C5CCCC5)s4)nc3c2)cc(OC)c1OC` [Example 0204], the IC50 in test [2] (ERK2 enzyme assay (1)) is less than 1000 nM.

On to `COc1ccccc1-c1cnc2ccc(Nc3nnc(C4CCCC4)s3)nc2c1` [Example 0211], for which the IC50 in test [2] (ERK2 enzyme assay (1)) was less than 1000 nM.

For the molecule `COc1cccc(-c2cnc3ccc(Nc4nnc(C5CCCC5)s4)nc3c2)c1` [Example 0212], in test [2] (ERK2 enzyme assay (1)), the IC50 is less than 1000 nM.

In the case of `COc1ccc(-c2cnc3ccc(Nc4nnc(C5CCCC5)s4)nc3c2)cc1` [Example 0213], in test [2] (ERK2 enzyme assay (1)), the IC50 is less than 1000 nM.

As for `Cc1noc(C)c1-c1cnc2ccc(Nc3nnc(C4CCCC4)s3)nc2c1` [Example 0216], the IC50 in test [2] (ERK2 enzyme assay (1)) is less than 1000 nM.

With `c1ccc(-c2cnc3ccc(Nc4nnc(C5CCCC5)s4)nc3c2)cc1` [Example 0218, 5-Cyclopentyl-N-(7-phenyl-1,5-naphthyridin-2-yl)-1,3,4-thiadiazole-2-amine], the IC50 in test [2] (ERK2 enzyme assay (1)) is less than 1000 nM.

As for `CCOC(=O)c1nnc(Nc2ccc3ncc(-c4cnn(C)c4)cc3n2)s1` [Example 0230], the IC50 in test [2] (ERK2 enzyme assay (1)) was less than 1000 nM.

For `COc1cccc(-c2ccnc3ccc(Nc4nnc(C(C)C)s4)nc23)c1` [Example 0271], in test [2] (ERK2 enzyme assay (1)), the IC50 was less than 1000 nM.

Take `CC(C)(C)OC(=O)N1CC=C(c2cnc3ccc(Nc4nnc(C5CCCC5)s4)nc3c2)CC1` [Example 0328, tert-butyl 4-(6-((5-cyclopentyl-1,3,4-thiadiazol-2-yl)amino)-1,5-naphthyridin-3-yl)-5,6-dihydropyridine-1(2H)-carboxylate]: the IC50 in test [2] (ERK2 enzyme assay (1)) is less than 1000 nM.

As for `CC(C)(C)OC(=O)N1CCC(c2cnc3ccc(Nc4nnc(C5CCCC5)s4)nc3c2)CC1` [Example 0331, tert-butyl 4-(6-((5-cyclopentyl-1,3,4-thiadiazol-2-yl)amino)-1,5-naphthyridin-3-yl)piperidine-1-carboxylate], the IC50 in test [2] (ERK2 enzyme assay (1)) lay within 1000 to 10000 nM.

As to `FC(F)(F)CN1CCC(n2cc(-c3cnc4ccc(Nc5nnc(C6CCCC6)s5)nc4c3)cn2)CC1` [Example 0340, 5-cyclopentyl-N-(7-(1-(1-(2,2,2-trifluoroethyl)piperidin-4-yl)-1H-pyrazol-4-yl)-1,5-naphthyridin-2-yl)-1,3,4-thiadiazole-2-amine], in test [2] (ERK2 enzyme assay (1)), the IC50 is less than 1000 nM.

With `CC(C)c1cnnc(Nc2ccc3ncc(-c4ccccc4)cc3n2)c1` [Example 0408], in test [2] (ERK2 enzyme assay (1)), the IC50 is less than 1000 nM.

Regarding `CC(C)c1cnnc(Nc2ccc3ncc(-c4cn(C)nc4NC4CCCCCC4)cc3n2)c1` [Example 0949], the IC50 in test [3] and in test [1] was 1000 to 10000 nM throughout.

`Cc1nn(C)cc1-c1cnc2ccc(Nc3cn(C(C)C)cn3)nc2c1` [Example 0950, 7-(1,3-dimethyl-1H-pyrazol-4-yl)-N-(1-isopropyl-1H-imidazol-4-yl)-1,5-naphthyridine-2-amine]: the figures for the IC50 in test [3] and in test [1] were 1000 to 10000 nM and less than 1000 nM, respectively.

As to `CCOc1c(-c2cnn(C)c2)cnc2ccc(Nc3cc(C(C)C)cnn3)nc12` [Example 0951, 8-Ethoxy-N-(5-isopropylpyridazin-3-yl)-7-(1-methyl-1H-pyrazol-4-yl)-1,5-naphthyridine-2-amine], the IC50 in test [3] and in test [1] was less than 1000 nM each time.

As to `CC(C)c1cnnc(Nc2ccc3ncc(-c4cnn(C)c4)c(Cl)c3n2)c1` [Example 0952, 8-Chloro-N-(5-isopropylpyridazin-3-yl)-7-(1-methyl-1H-pyrazol-4-yl)-1,5-naphthyridine-2-amine], the IC50 in test [3] and in test [1] was less than 1000 nM throughout.

For the molecule `CC(C)c1cnnc(Nc2ccc3ncc(-c4cnn(C)c4)c(-c4ccncc4)c3n2)c1` [Example 0953, N-(5-isopropylpyridazin-3-yl)-7-(1-methyl-1H-pyrazol-4-yl)-8-(pyridin-4-yl)-1,5-naphthyridine-2-amine], the IC50 in test [3] and in test [1] was less than 1000 nM throughout.

For `CC(C)c1cnnc(Nc2ccc3ncc(-c4cnn(C)c4)c(-c4cccnc4)c3n2)c1` [Example 0954, N-(5-isopropylpyridazin-3-yl)-7-(1-methyl-1H-pyrazol-4-yl)-8-(pyridin-3-yl)-1,5-naphthyridine-2-amine], the IC50 in test [3] and in test [1] was less than 1000 nM in each case.

As for `CC(C)c1cnnc(Nc2ccc3ncc(-c4cnn(C)c4)c(N4CCOCC4)c3n2)c1` [Example 0955, N-(5-isopropylpyridazin-3-yl)-7-(1-methyl-1H-pyrazol-4-yl)-8-morpholino-1,5-naphthyridine-2-amine], the IC50 in test [3] and in test [1] was less than 1000 nM throughout.
